This note sets out measurements from patent US20080166408A1, “Oral Dosage Form Comprising Rosiglitazone” (priority 2005, published 2008).

The structures appear in SMILES notation.

This data set is described as follows: pH dependent solubility of Compound A. The data set is classed as physicochemical. Conditions: acidic conditions of the stomach (around pH 2) versus near neutral conditions of the lower intestine (around pH 7); Compound A and its salts or solvates, in particular the maleate salt.

In the case of `CN(CCOc1ccc(CC2SC(=O)NC2=O)cc1)c1ccccn1` (stereo not shown) [Compound A, 5-[4-[2-(N-methyl-N-(2 pyridyl)amino)ethoxy]benzyl]thiazolidine-2,4-dione], the pH dependent solubility result is listed as “more soluble in the acidic conditions of the stomach (around pH 2) than in the near neutral conditions of the lower intestine (around pH 7)”.
